“And” between values parts separate entries of the source, which are not always exact repeats. Identical values can stand only once.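 48-hour exposure; five concentrations; linearly interpolated endpoints. GI50 is the concentration that inhibits growth by half. TGI is the concentration that stops growth completely.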
Key:
Test in all cases: DTP human tumour cell line panel, 48 h
[1] = system: OVCAR-8 ovarian
[2] = system: IGROV1 ovarian
[3] = system: NCI-H522 lung
[4] = system: HOP-62 NSCLC
[5] = system: SK-MEL-28 melanoma
[6] = system: OVCAR-5 ovarian
[7] = system: SN12C renal
[8] = system: SK-MEL-2 melanoma
[9] = system: HS 578T breast
[10] = system: DU-145 prostate

SMILES | TGI [1] | TGI [2] | TGI [3] | TGI [4] | TGI [5] | TGI [6] | TGI [7] | GI50 [1] | GI50 [2] | GI50 [3] | GI50 [4] | GI50 [8] | TGI [8] | GI50 [5] | GI50 [9] | TGI [9] | GI50 [10] | TGI [10] | GI50 [7] | GI50 [6]
COC(=O)C1C(=O)O[C@@H](c2ccc(OC)c(OC)c2OC)C1C(=O)OC (mixture of isomers) | > 100 µM | > 100 µM | > 100 µM | > 100 µM | > 100 µM | > 100 µM | > 100 µM | – | – | – | – | – | – | – | – | – | – | – | – | –
COc1ccc(Cl)cc1Nc1nc(C(F)(F)F)ccc1C(=O)N/N=C/c1cccnc1 | > 100 µM | > 100 µM | 74.7 µM | 75 µM | > 100 µM | – | > 100 µM | 2.91 µM | 4.33 µM | 2.47 µM | 5.22 µM | 3.5 µM | > 100 µM | 3.95 µM | 11.8 µM | > 100 µM | 7.22 µM | > 100 µM | 7.78 µM | –
COc1ccc(-c2[nH]nc(N)c2-c2cc(OC)c3c(c2)OCO3)cc1 | > 100 µM | 70.5 µM | – | > 100 µM | > 100 µM | > 100 µM | > 100 µM | 4.44 µM | 8.51 µM | – | 5.65 µM | 2.81 µM | 6.42 µM | 6.3 µM | 2.01 µM | 5.21 µM | 5.6 µM | > 100 µM | 5.01 µM | 16 µM
OCc1ccc(N2CCc3cc(F)ccc3C2)cc1Cl | 20.8 µM | 0.0941 µM | 25.9 µM | 17.9 µM | 26.9 µM | – | 23.2 µM | 7.31 µM | 0.017 µM | 12.7 µM | 0.302 µM | 0.375 µM | 17.8 µM | 13.8 µM | 21.3 µM | 59.1 µM | 6.67 µM | 20.6 µM | 10.9 µM | –
CCCCCCCCCCSC(=O)NC | 87.7 µM | > 100 µM | 54.6 µM | – | 68.4 µM | > 100 µM | 74.4 µM | – | – | – | – | – | 69 µM | – | – | – | – | – | – | –
COc1ccc(-c2ccccc2)c2[nH]c3c(c12)CCNC3=O | > 100 µM | > 100 µM | > 100 µM | > 100 µM | – | > 100 µM | > 100 µM | – | – | – | – | – | – | – | – | – | – | – | – | –
COC1=C(OC)C(=O)C(Sc2ccc3ccccc3c2)=CC1=O | 82.4 µM | 39 µM | – | 32.7 µM | 41.5 µM | 37.2 µM | 26.5 µM | – | – | – | – | – | 31.4 µM | – | – | 53.4 µM | – | 33.7 µM | – | –
N#Cc1ccccc1C#C/C=C\C#CC#C/C=C\C#Cc1ccccc1C#N | > 100 µM | 91.6 µM | 14.9 µM | 43.5 µM | 49.6 µM | 26.5 µM | – | 47.6 µM | 15 µM | 3.15 µM | 16.5 µM | 22.1 µM | 62.7 µM | 10.6 µM | 5.38 µM | 78.8 µM | 29.3 µM | > 100 µM | – | 11.4 µM
CC(=O)[CH-]C(=O)c1ccccc1.CC(=O)[CH-]C(=O)c1ccccc1.CC(C)CCC[C@H](C)C1CCC2[C@@H]3CC=C4C[C@@H]([O-])CC[C@]4(C)C3CC[C@@]21C.CC(C)CCC[C@H](C)C1CCC2[C@@H]3CC=C4C[C@@H]([O-])CC[C@]4(C)C3CC[C@@]21C.Cl.[Ti+4] (some centres undefined) | > 25 µM | > 25 µM | > 25 µM | > 25 µM | > 25 µM | > 25 µM | > 25 µM | > 25 µM | > 25 µM | > 25 µM | > 25 µM | > 25 µM | > 25 µM | > 25 µM | – | – | – | – | > 25 µM | > 25 µM
CN(NC1OC(CO)C(O)C(O)C1O)c1ccccc1 (centres undefined) | > 100 µM | > 100 µM | > 100 µM | > 100 µM | > 100 µM | > 100 µM | – | – | – | – | – | – | – | – | – | – | – | – | – | –
CC(=O)OC(C)(C)/C=C/C(=O)[C@](C)(O)[C@H]1[C@H](O)C[C@@]2(C)[C@@H]3CC=C4[C@@H](C=C(O)C(=O)C4(C)C)[C@]3(C)C(=O)C[C@]12C | 5.35 µM and 2.14 µM and 3.28 µM | – | 196 nM [middle of 4 runs] | – | – | 6.67 µM and 4.02 µM and 1.09 µM | 3.34 µM and 1.52 µM and 0.938 µM | – | – | – | – | – | 64.9 nM [middle of 4 runs] | – | – | – | 0.0514 µM | 0.0997 µM and 0.689 µM | – | –
O=C(CO[N+](=O)[O-])OC/C=C/c1ccccc1 | > 100 µM | > 100 µM | > 100 µM | > 100 µM | – | > 100 µM | > 100 µM | – | – | – | – | – | > 100 µM | – | – | – | – | – | – | –
CCN(CC)c1ccc2nc3c4ccccc4c(=O)cc-3n(-c3ccccc3)c2c1 | 5.11 µM | 2.92 µM | – | 3.6 µM | 7.07 µM | > 100 µM | 40.2 µM | 1.75 µM | 0.62 µM | – | 1.08 µM | 1.42 µM | 3.95 µM | 2.05 µM | 2.37 µM | 7.24 µM | 2.66 µM | 9.75 µM | 2.72 µM | 2.92 µM
CN(C)CCn1cnc2ncccc2c1=O | > 100 µM | > 100 µM | > 100 µM | > 100 µM | > 100 µM | > 100 µM | > 100 µM | – | – | – | – | – | > 100 µM | – | – | – | – | – | – | –
CC1CCC(=O)C(C(O)CC2CC(=O)N(c3ccccc3)C(=O)C2)C1 (centres undefined) | > 100 µM | > 100 µM | > 100 µM | > 100 µM | > 100 µM | > 100 µM | > 100 µM | – | – | – | – | – | – | – | – | – | – | – | – | –
COC1OC(CBr)C(OC(=O)c2ccccc2)C(OS(=O)(=O)c2ccc(C)cc2)C1Br (centres undefined) | > 100 µM | – | > 100 µM | > 100 µM | > 100 µM | – | > 100 µM | – | – | – | – | – | > 100 µM | – | – | – | – | – | – | –
Cc1ccc(Cl)cc1NC(=O)c1cc2ccccc2cc1O | 12.4 µM | 3.95 µM | 0.719 µM | 0.673 µM | – | 10.7 µM | 1.92 µM | 0.356 µM | 0.189 µM | 0.231 µM | 0.224 µM | 0.19 µM | 0.707 µM | – | 0.304 µM | 1.96 µM | 0.479 µM | > 24.7 µM | 0.265 µM | 0.992 µM

— PubChem BioAssay (NCI)
